Measurements published in US7658706B2, “Vascular graft sterilization and decellularization” (RTI Biologics, Inc., priority 2005, dated 2010).
Where two headings read alike, the source gives them in different places.

Legend:
[1] = system: class I MHC antigens in human saphenous vein; test: Immunohistochemical stain for class I MHC antigens after decellularization (Example 1)
Description: The effectiveness of cell and cellular debris removal was evaluated using two detergent and two enzyme solutions at various concentrations (Table 2). […] One treatment group combined Triton-X 100 with sodium deoxycholate. Trypsin alone at 0.05% (w/v) or 1.0% (w/v) and in combination with 0.02% (w/v) EDTA were the enzyme solutions used in the decellularization process.
(§1) Samples were then rinsed in PBS at room temperature for 10 minutes while continuously shaking. Following the rinse step, the samples were cut in half and either prepared for histology or immunohistochemistry.
Immunohistochemistry was used to determine the level of antigens remaining in the tissue after treatment. […] Samples were prepared in frozen blocks and sectioned with a cryostat. The sections were thawed and then rinsed for blocking and antibody staining. Sections were incubated for 30 minutes in primary antibody (mouse anti-HLA-ABC class I MHC) solution and then for anther 30 minutes in diluted biotinylated secondary antibody (Vector ABC Elite kit) solution. An enzyme substrate, NovaRed (Vector), was used to stain the antibodies red. The counter stain was hematoxylin providing a blue contrast.
A Zeiss Axiophot 2 microscope with a motorized Ludl scanning stage was used with tile field mapping at 5× to capture the entire image in one frame. Particle analysis was performed in Image J to determine the ratio of antigen staining (red) to the total tissue sample.
A blue and green filter was applied to only allow red to pass. Obvious areas of antigen staining were removed due to this variation in red hue. […] All samples were compared to their negatives for a percentage of red staining.
This procedure was applied to all images. […] The treatment groups are labeled according to the detergent or enzyme used followed by the processing conditions. For the Trypsin and Trypsin+EDTA groups, the concentrations ranged from 0.05% (L) to 1.0% (H), the processing temperatures were 37° C. (L), 48° C. (M) and 55° C. (H), and the processing times were 6 hrs (L), 17 hrs (M) and 24 hrs (H).

[2] = system: human greater saphenous vein; details: 0.075% SDS; cited from earlier work
[3] = system: B. stearothermophilus spores; test: Suspension sterilization: survivor/reduction curves for spores in germicide; assay type: cell-based, Bacillus stearothermophilus
Source text: The effectiveness of a sterilant is defined in terms of decimal reduction time (D-value). This is the exposure time (t) used under certain conditions to cause one log reduction (n) (90%) of the initial population. A suspension is expected to follow a predictable death rate regarding a plot of the amount of survivors over time. The negative reciprocal of the slope of regression lines of survivor curves gives the D-value where t=D×n n=[…]
(§2) In order to determine the reduction in spores after processing with cleaning agents, an effective and consistent method was developed. […] It was determined that residual hydrogen peroxide inhibited the growth at concentrations of 0.6% or higher for TSA plates and 6% or higher for blood plates (FIG. 12). It is believed that the catalase contained in the blood agar plates inactivated the hydrogen peroxide. […] Even though the blood agar plates allowed for dilutions as low as 1:10, the titre used was too low to detect more than a 3 log reduction in the process limiting the data collection for the survivor curves.
To ensure consistency, each vial was vortexed before each replicate and all of the material was removed from the pipette tip onto the plate. Disposable plate spreaders were used to prevent cross contamination. The moisture needed to be maintained at a certain level because the plates would dry out at 60° C., but if there was too much moisture the bacteria would streak across the plate and prevent an accurate count. The first procedure implemented was propping the plates open in a laminar flow hood to allow excessive moisture to dry. The second method employed was placing the plates in a beaker with a porous covering to trap some moisture while allowing the excess to evaporate.
Hydrogen peroxide at a concentration of 6% was used at temperatures of 40, 45 and 50° C. to calculate a curve for modeling the temperature effects on spore kill. […] Samples were removed and immediately placed in an ice bath at 10, 15, 20 and 30 min. The vial was well-mixed on a vortex, and then diluted 1:10 in series before plating.
Peracetic acid at concentrations of 0.1%, 0.05% and 0.005% were used only at 40° C. to calculate a curve for modeling the concentration effects on spore kill. […] Samples were removed and immediately placed in an ice bath at various time points depending on the concentration. The vial was well-mixed on a vortex, and then diluted 1:10 in series before plating.
(§3) Typically, a survivor curve is constructed with the initial population at time zero and the resultant populations at various time points. Since not all data points could be completed in the same day, some reduction curves were constructed to compare log reduction in the controls for each experiment over time. This normalized the data to its own experimental episode.

[4] = system: B. stearothermophilus spores
Description: Before enumerating the population remaining on tissue following chemical processing, the amount recoverable from the tissue must be determined. The recovery process developed involves the use of sonication, mechanical shaking and agitation on a vortex. Veins were cut into 30 mm segments and clamped at one end. […] The samples were then cut from the clamps and split open over a centrifuge tube containing 39.9 ml of Letheen broth to expose the lumen to the recovery process. A new pair of scissors or a new scalpel blade were used for each vein and the segments were cut over the broth to catch anything that may not have adhered to the surface of the tissue.
The tubes were sonicated at room temperature for ten minutes to break the bacteria from the surfaces. The tubes were then placed on a shaker where they were for another 10 min. The Letheen broth containing the tissue sample was then vortexed for 30 s and diluted in a series of 1:10 dilutions with each dilution plated on blood agar plates. The plates were incubated overnight at 60° C.
The procedure for spike recovery was used to collect data for the reduction curves. Vein segments were inoculated and then treated in one of the following conditions. Hydrogen peroxide (6%) was analyzed at 40° C. and 50° C. while peracetic acid (0.1%) was only tested at 40° C. At each time point, three samples were spiked and treated with one control for recovery efficiency.
as §3
A control was used at each experimental episode to provide a correction factor for the treated samples. The recovered population divided by the correction factor provides the surviving population after treatment.

[5] = system: Bacillus stearothermophilus; test: Growth inhibition by residual germicide on TSA and blood agar plates; assay type: cell-based
Description: as §2

[6] = system: B. stearothermophilus; details: 6% in DI water, PBS (pH 6) or PBS (pH 7.2), 45° C., sonication
Description: In a separate study, 6% hydrogen peroxide was prepared in either DI water, PBS (pH 6) or PBS (pH 7.2). It was then used at 45° C. to treat B. stearothermophilus while under sonication.

[7] = system: collagen; test: Collagen denaturation, quantitative enzyme digestion assay (matrix integrity)
Description: One of the major structural components of the extracellular matrix that gives veins their strength is collagen. Damage to collagen can result in mechanical failures such as increased compliance or aneurism formation. It can also result in a cellular response due the exposure of the triple helix when stability is compromised. The amount of collagen denaturation was assessed to evaluate processing conditions with a quantitative enzyme digestion assay. […] Digested and undigested fractions are separated and hydrolyzed with concentrated hydrochloric acid (HCl) to release free amino acids from each fraction. Following neutralization of the acid in 1 N NaOH, levels of hydroxyproline (an amino acid present in high concentrations in collagen) are assessed in each fraction by a calorimetric method at a wavelength of 550 nm (Chloramine T binding, and reduction of the substrate DAB to a colored end product). The level of denatured collagen in a given sample is then expressed as a percent of the trypsin soluble fraction to the sum of both trypsin soluble and trypsin insoluble fractions.
Achieving the appropriate log reduction should not come at the expense of the integrity of the extracellular matrix. […] The effect of hydrogen peroxide at 6% at 40° C. and 50° C. on collagen was compared to PAA at 0.1% at the same specified temperatures.
Digested and undigested fractions are separated and hydrolyzed with concentrated hydrochloric acid (HCl) to release free amino acids from each fraction. Following neutralization of the acid in 1 N NaOH, levels of hydroxyproline (an amino acid present in high concentrations only in collagen) are assessed in each fraction by a calorimetric method (Chloramine T binding, and reduction of the substrate DAB to a colored end product). The level of denatured collagen in a given sample is then expressed as a percent of the trypsin soluble fraction to the sum of both trypsin soluble and trypsin insoluble fractions.

[8] = system: enteric bacteria (E. coli, Enterococcus faecalis or Salmonella enteritidis); details: peroxide doses of 0.3 to 15%, 10 min; cited from earlier work
[9] = system: B. subtilis; details: hydrogen peroxide alone, 25° C.; cited from earlier work
[10] = system: Bacillus atrophaeus spores; details: 7.5% hydrogen peroxide, room temperature, 6 hour incubation; cited from earlier work
[11] = system: B. stearothermophilus; details: 26.5% hydrogen peroxide, 25° C.; cited from earlier work
[12] = Bradford Assay of nonspecific proteins in collagenase digested vein samples; set-up: species or system human; details: 0.1% peracetic acid versus 6% hydrogen peroxide (FIGS. 29, 30)
Description: In a further study, the efficiency of peracetic acid (PAA) versus hydrogen peroxide (HP) was investigated. Samples were treated in either 0.1% PAA or 6% HP and were exposed for varying lengths of time at varying temperatures.
Without wishing to be bound by theory, it is believed that the peracetic acid opens the collagen matrix up to allow for greater penetration of the tissue. It also believed to break down the proteins better than hydrogen peroxide. […] The Bradford Assay (Bradford, 1976) is used to quantify nonspecific proteins in collagenase digested vein samples. The Bradford Assay is a general protein assay, is based on an absorbance shift in a dye (Coomassie brilliant blue G-250 dye (CBBG)). CBBG has an absorbance shift when bound to arginine and hydrophobic amino acid residues (e.g., tryptophan, tyrosine, histidine and phenylalanine) present in protein. The reduction in antigenicity is correlated in the immunohistochemical staining (e.g., groups L and K from Example 5) and the histopathology scores (e.g., prototype recipe from Example 4).

[13] = system: human saphenous vein; test: Histology (H&E) for cellularity and matrix (Example 1); details: 0.05% Trypsin, 37° C., 6 or 24 hours (FIGS. 7, 8)
Description: as §1, with “Samples of human saphenous veins 10 mm in length were placed in each of the test solution at 37° C. or 48° C. for both 6 and 24 hours while continuously shaking. Samples” for “Samples”
Samples were placed in 10% buffered formalin immediately following the rinse step and remained there for at least 24 hours before further preparation. Then, the samples were embedded in paraffin and stained with hematoxylin and eosin (H&E) to determine cellularity.
The results of the immunohistochemical stain were compared to histology slides stained for cellularity (FIGS. 7 to 10). […] The extracellular matrix is preserved in each segment except with 1.0% Cholate at 48° C.

O=C(O)CN(CCN(CC(=O)O)CC(=O)O)CC(=O)O [EDTA]
effect of addition of EDTA on removal of cells ([1]; added to Triton at 0.25%, 6 hours, 37° C.): enhance the removal of cells
effect of addition of EDTA on removal of antigens ([1]; added to Trypsin): inconsistent effect

CCCCCCCCCCCCOS(=O)(=O)[O-].[Na+] [SDS, sodium dodecyl sulfate]
transmural cell removal [2]: > 94%

OO [hydrogen peroxide]
D-value ([3]; 6% peroxide, 40° C., spores in suspension (FIG. 16)): 47.39
time for a 6 log reduction ([3]; 6% peroxide, 40° C., suspension): ~5 hours
D-value ([3]; 6% peroxide, 45° C., spores in suspension (FIG. 15)): 23.0
D-value ([3]; 6% peroxide, 50° C., spores in suspension (FIG. 14)): 9.87
time for a 6 log reduction ([3]; 6% peroxide, 50° C., suspension): less than an hour
reduction of the D-value by an increase in temperature ([3]; 6% peroxide, from 40° C. to 50° C., suspension): approximately 80%
time for a 6 log reduction ([4]; 6% hydrogen peroxide, 50° C., spiked tissue): less than 40 minutes
D-value ([4]; 6% hydrogen peroxide, 50° C., spiked tissue (FIG. 20)): 6.63
D-value with tissue ([4]; 6% peroxide with tissue, temperature not stated): 5.34
D-value ([4]; 6% peroxide, 40° C., spiked tissue (FIG. 21)): 15.17
decrease of D-value with tissue versus suspension ([4]; 6% peroxide, temperature not stated): approximately 4 minutes
residual concentration that inhibited the growth ([5]; TSA plates): ≥ 0.6%
residual concentration that inhibited the growth ([5]; blood plates): ≥ 6%
effect of buffer/pH on sterilizing [6]: a buffered solution may be more effective
ratio of degraded collagen compared to untreated controls [7]: significantly altered matrix properties
log microbial reductions [8]: below 0.2 log
D-value [9]: 55.2 min
growth of spores [10]: No growth was detected
D-value [11]: 4.7 min

CC(=O)OO [peracetic acid]
D-value ([3]; 0.005% PAA, 40° C., spores in suspension (FIG. 19)): 6.45
D-value ([3]; 0.05% PAA, 40° C., spores in suspension (FIG. 18)): 1.90
time for a 6 log reduction ([3]; 0.05% PAA, 40° C., suspension): 11 minutes
growth inhibition by residual germicide ([5]; within the processing concentrations, blood agar plates (FIG. 13)): no inhibition was observed
amount of digestible hydroxyproline ([7]; 0.1% PAA (FIGS. 31, 32)): did not increase the amount of digestible hydroxyproline
ratio of degraded collagen compared to untreated controls ([7]; 6% hydrogen peroxide, 0.1% PAA, 50° C., one hour (FIG. 22)): significantly altered matrix properties
efficiency in breaking down proteins [12]: more efficient than 6% hydrogen peroxide in significantly breaking down proteins

Trypsin
level of antigens ([1]; 1.0% Trypsin or 1.0%/0.02% Trypsin/EDTA, minimum of 48° C. and 17 hrs): significantly reduced the level of antigens
cellularity in histology [13]: still evidence of cells
collagen degradation compared to untreated controls [7]: less than half of the degradation of the untreated controls

octylphenol ethoxylate [Triton]
collagen degradation compared to untreated controls ([7]; Triton 1.0%, Cholate 0.25%, 48° C., 24 hours, constant agitation (FIG. 11)): A significant degradative effect was not seen
